The values below are quoted from earlier work in patent US20250108061A1, “METHOD FOR TREATING ENDOMETRIOSIS AND PROVIDING EFFECTIVE CONTRACEPTION” (CHEMO RESEARCH, S.L., priority 2021, published 2025).

Data set [1] has as its system women. The settings on record: at high dosages (5-15 mg/daily).
Data set [2] has as its system women.

Consider `C#C[C@]1(OC(C)=O)CC[C@H]2[C@@H]3CCC4=CC(=O)CC[C@@H]4[C@H]3CC[C@@]21C` [NETA, norethisterone acetate], for which the androgenic side effects entry in data set [1] was “can produce androgenic side effects, such as acne, hirsutism, weight gain and voice changes of slight severity in some women”. Also, the “dosage necessary for ovulation inhibition” value in data set [2] (given continuously over 28 days) is 0.35 mg/daily. With `C[C@]12CCC3=C4CCC(=O)C=C4CC[C@H]3[C@@H]1CC[C@@]2(O)CC#N` [DNG, Dienogest], the “ovulation inhibition / ovarian activity” value in data set [2] (2 mg daily) is reported as “provides ovulation inhibition, but ovarian activity is not completely suppressed”.
